Experimental data taken from US20230381275A1, “MUSCULAR FUNCTION IMPROVING AGENT FOR SKELETAL MUSCLE OF WHICH FUNCTION IS DEGRADED DUE TO AGING” (OSAKA UNIVERSITY, priority 2020, published 2023).

Columns and labels:
[1] = tested on: aging-accelerated model mice (SAMP10); assay: Number of collisions on treadmill retest 12, 24 or 72 hours after local injection (Example 2); type: in vivo; details: SAMP10 36 weeks old, SV peptide total 40 ng into bilateral lower limb muscles, vs PBS control, FIG. 2
Method: In this example, SV peptide was administered to aging-accelerated model mice, and the recovery effect of muscle function after a certain period of time by the administration was confirmed.
Treadmill running was performed using aging-accelerated model mice (SAMP10 36 weeks old) under the same conditions as the first basic training of 35-week-old mice in Example 1, and SV peptide (total 40 ng) was injected into the bilateral lower limb muscles immediately after treadmill running (experimental group).
SV peptide was administered at the same site and dose as in the 35-week-old mice of Example 1. The number of collisions was evaluated by retesting treadmill running (18 m/min×90 min) at 12, 24, or 72 hours after local injection. In the control group, after treadmill running as in the experimental group, PBS was injected into the bilateral leg muscles instead of SV peptide, and the number of collisions on the treadmill was measured 12, 24, or 72 hours after the injection.

[2] = tested on: aging-accelerated model mice (SAMP10); assay: Endurance evaluation test on treadmill, mean running distance (Example 4); type: in vivo
Method: In this example, we evaluated exercise in aging-accelerated model mice when SV peptide was administered continuously.
(§1) Aging-accelerated model mice (SAMP10 28 weeks old) were trained on a treadmill (MK-680; Muromachi Kikai Co., Ltd.) (18 m/min×90 min) and subsequent SV peptide administration was performed according to the schedule in the following table. After 30 weeks of age, training was performed continuously from Monday to Friday of each week. SV peptides were added to PBS to adjust to a concentration of 1 μg/ml or 20 ng/ml for injection formulation. Localized injections were made into the bilateral leg muscles of each mouse anesthetized by inhalation with sevoflurane immediately after training on Tuesday and Friday (SV group). Exercise evaluations were performed after SV peptide localization on Friday.
Exercise evaluations were conducted for endurance evaluation, in which the belt speed on the treadmill was increased incrementally at regular intervals, and for slope-up evaluation, in which the belt incline was increased incrementally at regular intervals. […] In the PBS group as the control group, PBS was localized to the bilateral lower limb muscles instead of SV peptide after training on the treadmill in the same manner as in the SV group.
The results of the endurance evaluation test are shown in FIG. 5 as a graph of the percent change in mean running distance. […] The mean running distance for each group was calculated as the mean value of running distance calculated based on the running time and speed of each mouse in each group (the mean distance was calculated in the same manner hereinafter). […] In the SVN group (SVN group) in which SV peptide was administered at the same site and at the same dose as in the SV group without training on the treadmill, the rate of change in mean running distance was measured.

[3] = tested on: aging-accelerated model mice (SAMP10); assay: Exercise evaluation on treadmill, mean workload (Example 4); type: in vivo; details: SV-treated group (training and SV peptide) relative to PBS group; FIG. 6
Method: as §1
Exercise evaluations were conducted for endurance evaluation, in which the belt speed on the treadmill was increased incrementally at regular intervals, and for slope-up evaluation, in which the belt incline was increased incrementally at regular intervals. […]
The mean workload was calculated as the mean value of workload calculated by multiplying body weight, running time, slope (grade), running speed, and gravitational acceleration g(9.8 m/s^2) for each mouse in each group by […].

[4] = tested on: aging-accelerated model mice; assay: Endurance evaluation test on treadmill (Example 5); type: in vivo; details: SV group
Method: In this example, the training schedule and SV peptide administration concentration were changed from Example 4, and exercise evaluation (endurance evaluation) was conducted in aging-accelerated model mice when SV peptide was continuously administered. In addition, the cross-sectional area of muscle fibers (gastrocnemius (type I, type IIa, type IIb), extensor digitorum longus, and tibialis anterior muscles) were evaluated in mice that continued training and SV peptide administration until 51 weeks of age.
Aging-accelerated model mice were trained on a treadmill (MK-680; Muromachi Kikai Co., Ltd.) (18 m/min×90 min) and subsequent SV peptide administration was performed according to the schedule in the following table. 30 weeks of age and thereafter, training was performed continuously from Monday to Friday of each week. SV peptide was added to PBS to adjust to a concentration of 1 μg/ml for an injection formulation and localized to the bilateral leg muscles of each mouse anesthetized by inhalation with sevoflurane immediately after training on Tuesday and Friday (SV group; twice weekly administration). Exercise evaluations were performed every other Friday.
Exercise evaluation was performed by endurance assessment, in which the belt speed on the treadmill was increased stepwise at regular intervals. The elapsed time and belt speed increase used for the endurance evaluation test were the same as in Example 4. In the PBS group as a control group, PBS was injected into the bilateral leg muscles instead of SV peptide after training on the treadmill in the same manner as in the SV group.
The results of the endurance evaluation test are shown in FIG. 7 as a graph showing the difference between the mean running distance on the reference date (30 weeks of age) and the mean running distance in each test.
The results of the endurance evaluation test are also shown in FIG. 8 as a graph showing the difference between the mean speed on the reference day and the mean speed on each test day. The mean speed for each group was calculated as the mean of the highest speeds reached by each mouse in each group (mean speeds were calculated in the same manner hereinafter).

[5] = tested on: aging-accelerated model mice; assay: Endurance evaluation test on treadmill (Example 6); type: in vivo; details: SV group, SV peptide 2 μg/ml one dose every other week plus training
Method: In this example, the number of SV peptide doses and dosage in Example 4 was changed as shown in the following table, and exercise evaluation (endurance evaluation) was performed when SV peptide was continuously administered to aging-accelerated model mice. The conditions other than the number of SV peptide doses and dosage were the same as in Example 4.
Specifically, SV peptide was added to PBS to adjust to a concentration of 2 μg/ml for the injectable formulation, and localized to the bilateral lower limb muscles of each mouse anesthetized by inhalation with sevoflurane immediately after training on Friday every other week (even weeks) (SV group; one dose every other week).
The results of the endurance evaluation test are shown in FIG. 12 with a graph showing the mean running distance for the SV group (n=3) and the PBS group (n=4). A graph showing the difference between the mean running distance on the reference date (30 weeks old) and the mean running distance in each test is also shown in FIG. 13.

[6] = relative to SVVYGLR (SEQ ID NO.: 1); earlier work of the inventors; cited from earlier work
[7] = tested on: fibroblasts; details: Non-Patent Documents 5, 6, Patent Documents 1-4; cited from earlier work

Question: Which “number of collisions during treadmill running” value (shortened to “number”) ([1]; 12 hours after local injection) does the source give for “SVVYGLR [SV peptide, peptide consisting of 7 amino acids (SVVYGLR]” here?
Answer: Its value is “significantly reduced”.

Question: What about the “number” value ([1]; 24 hours after local injection) of the same substance?
Answer: Its value is “significantly reduced”.

Question: And the “number” value ([1]; 72 hours after local injection)?
Answer: The value was “significantly reduced”.

Question: What about the “mean running distance compared to the reference date” value ([2]; SV group (training and SV peptide), during the measurement period, reference date 30 weeks) of the same substance?
Answer: Its value is “increased compared to that at the reference date”.

Question: And the “rate of change of the mean running distance” value ([2]; SV group (training performed and SV peptide injected, 1 μg/ml or 20 ng/ml, 2 times/W), mean running distance at 30 weeks (reference date) = 100%, FIG. 5)?
Answer: The value was “about 130%”.

Question: And the “mean running distance over time” value ([2]; SVN group: SV peptide at same site and dose without training on the treadmill, not shown in the figure)?
Answer: Its value is “decreased over time”.

Question: And the “rate of change in mean running distance” value ([2]; SVN group: SV peptide without training on the treadmill, since the reference date (30 weeks = 100%))?
Answer: Its value is no more than 100%.

Question: What about the mean workload [3] of the same substance?
Answer: The mean workload was “higher workload relative to the PBS group”.

Question: And the “decrease in the mean running distance during the test period” value ([4]; 1 μg/ml twice weekly plus training, relative to the PBS group, FIG. 7)?
Answer: The value was “able to suppress the decrease in the mean running distance”.

Question: And the “decrease in mean speed during the test period” value ([4]; 1 μg/ml twice weekly plus training, relative to the PBS group, FIG. 8)?
Answer: The value was “able to suppress the decrease in mean speed”.

Question: What about the “mean speed (mean of highest speeds reached) relative to reference day” value ([4]; 1 μg/ml twice weekly plus training, test from 31 to 39 weeks of age, FIG. 8) of the same substance?
Answer: The value was “increased continuously”.

Question: What about the “mean running distance relative to the reference date (30 weeks of age)” value ([4]; SV peptide 1 μg/ml twice weekly plus training, tests at 31 to 41 weeks of age, FIG. 7) of the same substance?
Answer: Its value is “increased from the reference date”.

Question: And the mean running distance ([5]; after 49 weeks of age)?
Answer: Its mean running distance is “able to maintain the same mean running distance as the 30-week-old group”.

Question: And the mean running distance ([5]; from 31 to 48 weeks of age, FIGS. 12 and 13)?
Answer: Its mean running distance is “increased significantly”.

Question: And the angiogenic effect [6]?
Answer: The angiogenic effect was “promoting angiogenesis”.

Question: What about the “differentiation of fibroblasts to myofibroblasts” value [7] of the same substance?
Answer: The value was “promoting”.
